The test system of this assay is BDF1 mice, P388 leukemia ip, median survival T/C. In words: NCI In Vivo Anticancer Drug Screen. Data for tumor model P388 Leukemia (intraperitoneal) in B6D2F1 (BDF1) mice. The conditions noted are these: endpoint: median survival time, higher = longer survival. The method, boiled down: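 Compound-treated tumour-bearing mice were compared with vehicle-treated controls. Survival was recorded, and the value is the treated-group measurement divided by the control-group measurement (T/C).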

The mark [1] stands for this setting: dose: 50.0 mg/kg/injection, schedule: Q01DX009 (ip), vehicle: saline.
The mark [2] stands for this setting: dose: 50.0 mg/kg/injection, schedule: Q04DX003 (ip), vehicle: saline.
[3] abbreviates: dose: 100.0 mg/kg/injection, schedule: Q01DX009 (ip), vehicle: saline.
The mark [4] stands for this setting: dose: 100.0 mg/kg/injection, schedule: Q04DX003 (ip), vehicle: saline.
Where [5] appears, read: dose: 25.0 mg/kg/injection, schedule: Q04DX003 (ip), vehicle: saline with Tween-80.
Setting [6] is: dose: 50.0 mg/kg/injection, schedule: Q04DX003 (ip), vehicle: saline with Tween-80.
Setting [7] is: dose: 100.0 mg/kg/injection, schedule: Q01DX009 (ip), vehicle: Klucel (hydroxypropylcellulose) (HPC).
Setting [8] is: dose: 50.0 mg/kg/injection, schedule: Q01DX009 (ip), vehicle: saline with Tween-80.
[9] abbreviates: dose: 100.0 mg/kg/injection, schedule: Q01DX009 (ip), vehicle: saline with Tween-80.
Setting [10] is: dose: 100.0 mg/kg/injection, schedule: Q04DX003 (ip), vehicle: saline with Tween-80.
Where [11] appears, read: dose: 200.0 mg/kg/injection, schedule: Q01DX009 (ip), vehicle: saline with Tween-80.
[12] abbreviates: dose: 200.0 mg/kg/injection, schedule: Q04DX003 (ip), vehicle: saline with Tween-80.
Where [13] appears, read: dose: 400.0 mg/kg/injection, schedule: Q04DX003 (ip), vehicle: saline with Tween-80.

In PubChem BioAssay AID328 (DTP/NCI, 2004) one finds T/C data, which are given here for 21 molecules.

Values joined by “and” are separate entries in the source; they are usually repeats but may differ in a detail not shown here. Equal values may be shown once. Toxic doses and inconclusive results are not listed.

With `Cn1c(=O)c2[nH]c(CCCc3nc4c([nH]3)c(=O)n(C)c(=O)n4C)nc2n(C)c1=O`, the T/C is, setting by setting: (dose: 25.0 mg/kg/injection, schedule: Q01DX009 (ip), vehicle: saline) 90 % of control; under setting [1], 89 % of control; under setting [2], 100 % of control; under setting [3], 96 % of control and 122 % of control; under setting [4], 108 % of control.
As to `CCOC(=O)C(c1ccccc1)c1ccccc1`, the T/C was 100 % of control (dose: 100.0 mg/kg/injection, schedule: Q04DX003 (ip), vehicle: other); 95 % of control (dose: 200.0 mg/kg/injection, schedule: Q04DX003 (ip), vehicle: other); 90 % of control (dose: 400.0 mg/kg/injection, schedule: Q04DX003 (ip), vehicle: other).
With `CC1CCCC(CN=Cc2cc([N+](=O)[O-])ccc2O)[N-]1.CC1CCCC(CN=Cc2cc([N+](=O)[O-])ccc2O)[N-]1.[Ni+2]` (centres undefined), the T/C by setting is: (dose: 12.5 mg/kg/injection, schedule: Q04DX003 (ip), vehicle: saline with Tween-80) 100 % of control; under setting [5], 100 % of control; under setting [6], 100 % of control.
Take `O=[N+]([O-])c1ccc2c3c(cccc13)-c1ccccc1-2`: the T/C was 110 % of control under setting [7]; 90 % of control (dose: 100.0 mg/kg/injection, schedule: Q04DX003 (ip), vehicle: Klucel (hydroxypropylcellulose) (HPC)); 105 % of control (dose: 200.0 mg/kg/injection, schedule: Q01DX009 (ip), vehicle: Klucel (hydroxypropylcellulose) (HPC)); 95 % of control (dose: 200.0 mg/kg/injection, schedule: Q04DX003 (ip), vehicle: Klucel (hydroxypropylcellulose) (HPC)); 100 % of control (dose: 400.0 mg/kg/injection, schedule: Q01DX009 (ip), vehicle: Klucel (hydroxypropylcellulose) (HPC)); 100 % of control (dose: 400.0 mg/kg/injection, schedule: Q04DX003 (ip), vehicle: Klucel (hydroxypropylcellulose) (HPC)).
With `COc1cccc2c1C(=O)c1c(O)c3c(c(O)c1C2=O)CC(O)(/C(C)=N/Nc1ccc(Cl)cc1)CC3OC1CC(N)C(O)C(C)O1` (centres undefined), the T/C (dose: 4.08 mg/kg/injection, schedule: Q04DX003 (ip), vehicle: water) is 158 % of control and the T/C (dose: 6.8 mg/kg/injection, schedule: Q04DX003 (ip), vehicle: water) is 157 % of control.
Regarding `CCCP(CCC)c1ccccc1`, the T/C is, setting by setting: (dose: 25.0 mg/kg/injection, schedule: Q01DX009 (sc), vehicle: olive oil, sesame oil, peanut oil) 108 % of control; (dose: 50.0 mg/kg/injection, schedule: Q01DX009 (sc), vehicle: olive oil, sesame oil, peanut oil) 95 % of control; (dose: 100.0 mg/kg/injection, schedule: Q01DX009 (sc), vehicle: olive oil, sesame oil, peanut oil) 95 % of control; (dose: 100.0 mg/kg/injection, schedule: Q04DX003 (sc), vehicle: olive oil, sesame oil, peanut oil) 96 % of control; (dose: 200.0 mg/kg/injection, schedule: Q04DX003 (sc), vehicle: olive oil, sesame oil, peanut oil) 96 % of control; (dose: 400.0 mg/kg/injection, schedule: Q01DX009 (sc), vehicle: olive oil, sesame oil, peanut oil) 92 % of control. In addition, under “dose: 400.0 mg/kg/injection, schedule: Q04DX003 (sc), vehicle: olive oil, sesame oil, peanut oil”, the T/C is 123 % of control.
For `O=C1NC(c2cccc3ccccc23)Nc2ccc(Cl)cc21` (centres undefined), the T/C reads like this: (dose: 50.0 mg/kg/injection, schedule: Q01DX009 (ip), vehicle: Klucel (hydroxypropylcellulose) (HPC)) 160 % of control; (dose: 75.0 mg/kg/injection, schedule: Q01DX009 (ip), vehicle: Klucel (hydroxypropylcellulose) (HPC)) 155 % of control; under setting [7], 111 % of control.
Turning to `COc1ccc(-c2c(C)c(C)nc(Cl)c2C#N)c(OCc2ccccc2)c1OC`, the T/C (dose: 0.1 mg/kg/injection, schedule: Q01DX009 (ip), vehicle: Klucel (hydroxypropylcellulose) (HPC)) was 95 % of control.
As for `CCC1C/C(=C2/NC3CCCCC3NC2=O)C(=O)O1` (centres undefined), the T/C is 101 % of control (dose: 25.0 mg/kg/injection, schedule: Q04DX002 (ip), vehicle: saline with Tween-80); 98 % of control (dose: 50.0 mg/kg/injection, schedule: Q04DX002 (ip), vehicle: saline with Tween-80); 88 % of control (dose: 100.0 mg/kg/injection, schedule: Q04DX002 (ip), vehicle: saline with Tween-80).
`COc1cc(C(=O)N(CCCl)N=O)cc(OC)c1OC`: the T/C reads like this: under setting [5], 100 % of control; under setting [8], 100 % of control; under setting [6], 100 % of control; under setting [9], 100 % of control; under setting [10], 100 % of control and 109 % of control; under setting [11], 100 % of control. Further, the T/C is, setting by setting: under setting [12], 100 % of control; under setting [13], 109 % of control.
As for `C/C(=C\c1ccc(C)cc1)[N+](=O)[O-]`, the T/C reads like this: (dose: 17.5 mg/kg/injection, schedule: Q01DX010 (ip), vehicle: saline) 95 % of control; (dose: 35.0 mg/kg/injection, schedule: Q01DX010 (ip), vehicle: saline) 86 % of control; (dose: 70.0 mg/kg/injection, schedule: Q01DX010 (ip), vehicle: saline) 90 % of control.
For `CC1=C(/C=C/C(C)=C/C=C/C(C)=C/CO)C(C)(C)CCC1`, the T/C is 92 % of control under setting [8], 96 % of control under setting [9] and 96 % of control under setting [11].
With `NOCc1cccc([N+](=O)[O-])c1`, the T/C was 100 % of control under setting [2]; 91 % of control under setting [4]; 91 % of control (dose: 200.0 mg/kg/injection, schedule: Q04DX003 (ip), vehicle: saline).
Take `S=c1c2[nH]cnc2ncn1CCSC1=NC=NC2=NC=NC21` (centres undefined): the T/C under setting [10] was 100 % of control, the T/C under setting [12] is 95 % of control and the T/C under setting [13] is 109 % of control.
As to `S=c1nc[nH]c2c1ncn2CN1CCOCC1`, for the setting “dose: 25.0 mg/kg/injection, schedule: Q01DX009 (ip), vehicle: Klucel (hydroxypropylcellulose) (HPC)”, the T/C was 110 % of control.
As for `CCCCCCOP(=O)(N1CC1C)N1CC1C` (centres undefined), the T/C by setting is: under setting [1], 122 % of control; under setting [3], 150 % of control and 182 % of control; (dose: 200.0 mg/kg/injection, schedule: Q01DX009 (ip), vehicle: saline) 86 % of control.
Turning to `O=C(/C=C/c1cccc(Cl)c1)c1ccccc1`, the T/C under setting [7] is 115 % of control.
As to `O=C1c2cc([N+](=O)[O-])ccc2-c2cc(Cl)c(Cl)cc21`, the T/C (dose: 50.0 mg/kg/injection, schedule: Q01DX001 (ip), vehicle: saline sonified) was 86 % of control; the T/C (dose: 100.0 mg/kg/injection, schedule: Q01DX001 (ip), vehicle: saline sonified) was 100 % of control; the T/C (dose: 200.0 mg/kg/injection, schedule: Q01DX001 (ip), vehicle: saline sonified) was 90 % of control.
For `C=CC(=O)NC12CC3CC(CC(C3)C1)C2`, the T/C under setting [10] is 95 % of control and the T/C under setting [12] is 95 % of control.
Turning to `CC(=O)Oc1cc([N+](=O)[O-])ccc1C(=O)O`, the T/C is 104 % of control under setting [10], 108 % of control under setting [12] and 100 % of control under setting [13].
For `Cc1c2ccnc(-c3ccccc3)c2cc2c1[nH]c1ccccc12`, the T/C by setting is: under setting [8], 102 % of control; under setting [9], 100 % of control; under setting [11], 102 % of control.
